Results as given in ChEMBL document CHEMBL4138123, “Design, synthesis and biological evaluation of novel pyrazolochalcones as potential modulators of PI3K/Akt/mTOR pathway and inducers of apoptosis in breast cancer cells” (Eur J Med Chem, 2017).

Legend:
Assay type in all cases: functional
[1] = system: RPMI-8226; assay: Cytotoxicity against human RPMI8226 cells assessed as growth inhibition after 48 hrs by sulforhodamine B assay; conditions: RPMI-8226, 48 h
[2] = system: HOP-62; assay: Cytotoxicity against human HOP62 cells assessed as growth inhibition after 48 hrs by sulforhodamine B assay; conditions: HOP-62, 48 h
[3] = system: NCI-H23; assay: Cytotoxicity against human NCI-H23 cells assessed as growth inhibition after 48 hrs by sulforhodamine B assay; conditions: NCI-H23, 48 h; for CC50: read-out: LC50 (the source's name)
[4] = system: SNB-19; assay: Cytotoxicity against human SNB19 cells assessed as growth inhibition after 48 hrs by sulforhodamine B assay; conditions: SNB-19, 48 h; for CC50: read-out: LC50 (the source's name)
[5] = system: SK-MEL-5; assay: Cytotoxicity against human SK-MEL-5 cells assessed as growth inhibition after 48 hrs by sulforhodamine B assay; conditions: SK-MEL-5, 48 h
[6] = system: A498; assay: Cytotoxicity against human A498 cells assessed as growth inhibition after 48 hrs by sulforhodamine B assay; conditions: A498, 48 h
[7] = system: TK-10; assay: Cytotoxicity against human TK10 cells assessed as growth inhibition after 48 hrs by sulforhodamine B assay; conditions: TK-10, 48 h
[8] = system: UO-31; assay: Cytotoxicity against human UO31 cells assessed as growth inhibition after 48 hrs by sulforhodamine B assay; conditions: UO-31, 48 h
[9] = system: ACHN; assay: Cytotoxicity against human ACHN cells assessed as cell growth at 0.01 uM after 48 hrs by sulforhodamine B assay relative to control; conditions: read-out: Activity
[10] = system: OVCAR-8; assay: Cytotoxicity against human OVCAR8 cells assessed as cell growth at 0.01 uM after 48 hrs by sulforhodamine B assay relative to control; conditions: OVCAR-8, 48 h, read-out: Activity
[11] = system: SW-620; assay: Cytotoxicity against human SW620 cells assessed as cell growth at 0.01 uM after 48 hrs by sulforhodamine B assay relative to control; conditions: SW-620, 48 h, read-out: Activity
[12] = system: NCI-H460; assay: Cytotoxicity against human NCI-H460 cells assessed as cell growth at 0.01 uM after 48 hrs by sulforhodamine B assay relative to control; conditions: NCI-H460, 48 h, read-out: Activity
[13] = system: TK-10; assay: Cytotoxicity against human TK10 cells assessed as cell growth at 0.01 uM after 48 hrs by sulforhodamine B assay relative to control; conditions: TK-10, 48 h, read-out: Activity
[14] = system: SR; assay: Cytotoxicity against human SR cells assessed as cell growth at 0.1 uM after 48 hrs by sulforhodamine B assay relative to control; conditions: read-out: Activity
[15] = system: HCT-15; assay: Cytotoxicity against human HCT15 cells assessed as cell growth at 0.1 uM after 48 hrs by sulforhodamine B assay relative to control; conditions: HCT-15, 48 h, read-out: Activity
[16] = system: HT-29; assay: Cytotoxicity against human HT-29 cells assessed as cell growth at 0.1 uM after 48 hrs by sulforhodamine B assay relative to control; conditions: HT-29, 48 h, read-out: Activity
[17] = system: MDA-MB-435; assay: Cytotoxicity against human MDA-MB-435 cells assessed as cell growth at 0.1 uM after 48 hrs by sulforhodamine B assay relative to control; conditions: MDA-MB-435, 48 h, read-out: Activity
[18] = system: SK-MEL-28; assay: Cytotoxicity against human SK-MEL-28 cells assessed as cell growth at 0.1 uM after 48 hrs by sulforhodamine B assay relative to control; conditions: SK-MEL-28, 48 h, read-out: Activity
[19] = system: NCI/ADR-RES; assay: Cytotoxicity against human NCI/ADR-RES cells assessed as cell growth at 0.1 uM after 48 hrs by sulforhodamine B assay relative to control; conditions: read-out: Activity
[20] = system: A498; assay: Cytotoxicity against human A498 cells assessed as cell growth at 0.1 uM after 48 hrs by sulforhodamine B assay relative to control; conditions: A498, 48 h, read-out: Activity
[21] = system: HCT-15; assay: Cytotoxicity against human HCT15 cells assessed as cell growth at 1 uM after 48 hrs by sulforhodamine B assay relative to control; conditions: HCT-15, 48 h, read-out: Activity
[22] = system: M14; assay: Cytotoxicity against human M14 cells assessed as cell growth at 1 uM after 48 hrs by sulforhodamine B assay relative to control; conditions: M14, 48 h, read-out: Activity
[23] = system: MDA-MB-468; assay: Cytotoxicity against human MDA-MB-468 cells assessed as cell growth at 1 uM after 48 hrs by sulforhodamine B assay relative to control; conditions: MDA-MB-468, 48 h, read-out: Activity
[24] = system: HCC 2998; assay: Cytotoxicity against human HCC2998 cells assessed as cell growth at 10 uM after 48 hrs by sulforhodamine B assay relative to control; conditions: HCC 2998, 48 h, read-out: Activity
[25] = system: ACHN; assay: Cytotoxicity against human ACHN cells assessed as cell growth at 10 uM after 48 hrs by sulforhodamine B assay relative to control; conditions: read-out: Activity
[26] = system: TK-10; assay: Cytotoxicity against human TK10 cells assessed as cell growth at 10 uM after 48 hrs by sulforhodamine B assay relative to control; conditions: TK-10, 48 h, read-out: Activity
[27] = system: PC-3; assay: Cytotoxicity against human PC3 cells assessed as cell growth at 10 uM after 48 hrs by sulforhodamine B assay relative to control; conditions: PC-3, 48 h, read-out: Activity
[28] = system: MOLT-4; assay: Cytotoxicity against human MOLT4 cells assessed as cell growth at 100 uM after 48 hrs by sulforhodamine B assay relative to control; conditions: MOLT-4, 48 h, read-out: Activity
[29] = system: KM12; assay: Cytotoxicity against human KM12 cells assessed as cell growth at 100 uM after 48 hrs by sulforhodamine B assay relative to control; conditions: KM12, 48 h, read-out: Activity
[30] = system: Malme-3M; assay: Cytotoxicity against human MALME-3M cells assessed as cell growth at 100 uM after 48 hrs by sulforhodamine B assay relative to control; conditions: read-out: Activity
[31] = system: PC-3; assay: Cytotoxicity against human PC3 cells assessed as cell growth at 100 uM after 48 hrs by sulforhodamine B assay relative to control; conditions: PC-3, 48 h, read-out: Activity
[32] = system: MDA-MB-231; assay: Cytotoxicity against human MDA-MB-231 cells assessed as cell growth at 100 uM after 48 hrs by sulforhodamine B assay relative to control; conditions: MDA-MB-231, 48 h, read-out: Activity
[33] = system: BT-549; assay: Cytotoxicity against human BT549 cells assessed as cell growth at 100 uM after 48 hrs by sulforhodamine B assay relative to control; conditions: BT-549, 48 h, read-out: Activity
[34] = system: DU-145; assay: Cytotoxicity against human DU145 cells assessed as cell growth at 1 uM after 48 hrs by sulforhodamine B assay relative to control; conditions: DU-145, 48 h, read-out: Activity
[35] = system: ACHN; assay: Cytotoxicity against human ACHN cells assessed as cell growth at 100 uM after 48 hrs by sulforhodamine B assay relative to control; conditions: read-out: Activity

## COc1cc(-c2cc(/C=C/C(=O)c3ccc(F)c(F)c3)[nH]n2)cc(OC)c1OC
[1]
  LC50: > 100 µM
  TGI: 6.01 µM
[2]
  LC50: > 100 µM
  TGI: > 100 µM
[3]
  TGI: 8.5 µM
  CC50: > 100 µM
[4]
  TGI: > 100 µM
  CC50: > 100 µM
[5]
  LC50 (concentration killing 50% of cells): 26.7 µM
  TGI: 6.41 µM
[6]
  LC50: > 100 µM
  TGI: 7.13 µM
[7]
  LC50: > 100 µM
  TGI: 7.42 µM
[8]
  LC50: > 100 µM
  TGI: 14.2 µM
[9]
  growth at 0.01 µM: 102%
[10]
  growth at 0.01 µM: 95%
[11]
  growth at 0.01 µM: 95%
[12]
  growth at 0.01 µM: 106%
[13]
  growth at 0.01 µM: 82%
[14]
  growth at 0.1 µM: 106%
[15]
  growth at 0.1 µM: 95%
[16]
  growth at 0.1 µM: 102%
[17]
  growth at 0.1 µM: 90%
[18]
  growth at 0.1 µM: 102%
[19]
  growth at 0.1 µM: 98%
[20]
  growth at 0.1 µM: 96%
[21]
  growth at 1 µM: 88%
[22]
  growth at 1 µM: 86%
[23]
  growth at 1 µM: 79%
[24]
  growth at 10 µM: 13%
[25]
  growth at 10 µM: 2%
[26]
  growth at 10 µM: -13%
[27]
  growth at 10 µM: -23%
[28]
  growth at 100 µM: -14%
[29]
  growth at 100 µM: -48%
[30]
  growth at 100 µM: -31%
[31]
  growth at 100 µM: -41%
[32]
  growth at 100 µM: -49%
[33]
  growth at 100 µM: -58%

## COc1cc(-c2cc(/C=C/C(=O)c3ccc4c(c3)OCO4)[nH]n2)cc(OC)c1OC
[1]
  LC50: > 100 µM
  TGI: 2.94 µM
[2]
  LC50: 23.5 µM
  TGI: 5.17 µM
[3]
  TGI: > 100 µM
  CC50: > 100 µM
[4]
  TGI: > 100 µM
  CC50: > 100 µM
[5]
  LC50 (concentration killing 50% of cells): > 100 µM
  TGI: > 100 µM
[6]
  LC50: > 100 µM
  TGI: 15.4 µM
[7]
  LC50: > 100 µM
  TGI: 5.73 µM
[8]
  LC50: 26.3 µM
  TGI: 5.44 µM
[9]
  growth at 0.01 µM: 108%
[10]
  growth at 0.01 µM: 99%
[11]
  growth at 0.01 µM: 99%
[12]
  growth at 0.01 µM: 104%
[13]
  growth at 0.01 µM: 89%
[14]
  growth at 0.1 µM: 101%
[15]
  growth at 0.1 µM: 92%
[16]
  growth at 0.1 µM: 100%
[17]
  growth at 0.1 µM: 94%
[18]
  growth at 0.1 µM: 106%
[19]
  growth at 0.1 µM: 95%
[20]
  growth at 0.1 µM: 79%
[21]
  growth at 1 µM: 81%
[22]
  growth at 1 µM: 100%
[34]
  growth at 1 µM: 90%
[23]
  growth at 1 µM: 74%
[24]
  growth at 10 µM: -87%
[25]
  growth at 10 µM: -73%
[26]
  growth at 10 µM: -31%
[27]
  growth at 10 µM: 6%
[28]
  growth at 100 µM: -10%
[29]
  growth at 100 µM: 3%
[30]
  growth at 100 µM: -56%
[35]
  growth at 100 µM: -69%
[31]
  growth at 100 µM: -38%
[32]
  growth at 100 µM: 21%
